Results: patent publication US20240400606A1, “SMALL MOLECULE ACTIVATORS OF THE IMMUNE SYSTEM” (THE BOARD OF TRUSTEES OF THE UNIVERSITY OF ILLINOIS, priority 2021, published 2024)

Experiments:
[1] = test system: T47D cells; test: Alamar blue cellular cytotoxicity, T47D; type: cell-based; conditions: 72 hours
Experimental: Alamar Blue Fluorescence for Cellular Activity (IC50). Cells were seeded per well in a 96-well plate (5000 for MCF-7, 4000 for T47D, 7000 for mouse embryonic fibroblasts) and allowed to adhere before DMSO solutions of compounds were added to each well. Final concentration of DMSO in each well is 1%, final volume: 100 μL. At the end of 72 hours, Alamar Blue solution was added (10 μL of 1 mg resazurin per 10 mL PBS). After 2-4 hours incubation, fluorescence (λexcit.=555 nm, λemission.=585 nm) was measured. The fluorescence of each well was read with a SpectraMax M3 plate reader (Molecular Devices). Percent dead was determined by comparison to a 100% dead control: 100 μM Raptinal treated cells.

[2] = test system: free cholesterol levels in MCF-7; test: Whole cell cholesterol assay; type: cell-based, human; conditions: MCF-7, 6.25 μM, 72 hours
Experimental: Whole Cell Cholesterol Assay. Assay was run according to manufacturer's instructions. Briefly, 5000 MCF-7 cells were plated in 99 μL media in a 96-well plate and allowed to adhere overnight before DMSO solutions of compounds were added to each well. Final concentration of DMSO in each well is 1%, final volume: 100 μL. At the end of 72 hours, media was aspirated, and cells were washed twice with 100 μL PBS. 50 μL of cholesterol lysis solution was added and cells were incubated for 30 minutes at 37° C. 50 μL of sample was then transferred to a 96-well white walled assay plate. 50 μL of cholesterol detection reagent was added to all wells and incubated at room temperature for 1 hour. Luminescence was read using a SpectraMax M3 plate reader (Molecular Devices). Cholesterol levels were determined by use of a cholesterol standard curve.

[3] = target: SULT2B1b (Homo sapiens (Human), UniProt O00204); test: Coupled chromogenic SULT2B1b inhibition assay; type: biochemical; conditions: for IC50: coupled chromogenic in vitro assay, optimized conditions, mean±s.e.m., n=3
Sequence of SULT2B1b (O00204 whole entry): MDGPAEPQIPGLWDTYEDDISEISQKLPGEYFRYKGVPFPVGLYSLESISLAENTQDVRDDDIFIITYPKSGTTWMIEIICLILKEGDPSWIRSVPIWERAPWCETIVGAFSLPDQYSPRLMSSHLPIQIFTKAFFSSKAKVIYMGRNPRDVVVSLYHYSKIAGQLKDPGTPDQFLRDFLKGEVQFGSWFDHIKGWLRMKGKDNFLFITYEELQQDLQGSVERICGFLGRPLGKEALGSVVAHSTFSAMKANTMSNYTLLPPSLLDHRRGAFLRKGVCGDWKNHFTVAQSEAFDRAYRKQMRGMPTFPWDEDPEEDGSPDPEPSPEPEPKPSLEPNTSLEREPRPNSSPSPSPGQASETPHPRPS
Experimental: Optimized Coupled Chromogenic SULT2B1b Activity Assay. For 96-well Format: Working concentrations of IMPAD1 (0.1 mg/mL in 1× activity assay buffer), PAPS (1 mM in 1× activity assay buffer), and DHEA (2.5 mM in DMSO) were prepared. Two technical replicates were assayed for each sample. Reaction mixes were prepared by mixing 10 μL PAPS stock solution, 10 μL IMPAD1 stock solution, 4 μL 2.5 mM DHEA or DMSO, and 16 μL activity assay buffer to make […] reaction mix. Amount of reaction mix was scaled accordingly to number of samples assayed. 25 μL of reaction mix was dispensed to each well. SULT2B1b was diluted to 1.5 μg/μL in protein storage buffer then down to 0.8 μg/μL in 1X activity assay buffer. 25 μL of 0.8 μg/μL SULT2B1b was added to each well. The reaction was incubated at 37° C. for 45 minutes, then quenched by addition of 30 μL of malachite green solution A, followed by addition of 30 μL of malachite green solution B. The plate was left at room temperature for 20 minutes for color stabilization, then absorbance was read at 620 nm. IMPAD1 activity control was 10 μL of 0.1 mg/mL IMPAD1 mixed with 40 μL activity assay buffer. 25 μL of the IMPAD1 dilution was added to 25 μL of 0.1 mM PAP.
Coupled Chromogenic SULT2B1b Inhibition Assay. For 96-well Format: Working stock solutions of IMPAD1 (0.1 mg/mL in 1× activity assay buffer), PAPS (1 mM in 1X activity assay buffer), compound of interest (5 mM in DMSO) and DHEA (5 mM in DMSO) were prepared. Two technical replicates were assayed for each sample. […] The reaction was incubated at 37° C. for 45 minutes, then quenched by addition of 30 μL of malachite green solution A, followed by addition of 30 μL of malachite green solution B. The plate was left at room temperature for 20 minutes for color stabilization, then absorbance was read at 620 nm. […]
Percent inhibition was calculated as: 100−[100×[(Phosphate produced per wellaverage,compound of interest−Phosphate produced per wellaverage, DMSO)/(Phosphate produced per wellaverage, DHEA−Phosphate produced per wellaverage, DMSO)]]. […]

Row | SMILES | suitable sub-lethal treatment concentration [1] | free cholesterol levels vs DMSO [2] | IC50 [3] | percent inhibition ([3]; initial medium throughput screen)
1 | C[C@]12CCC(=O)N(Cc3ccc(Br)cc3)C1=CC[C@@H]1[C@@H]2C(=O)C[C@]2(C)C(=O)CC[C@@H]12 [Compound 3, (4aR,4bS,6aS,9aS,9bS)-1-(4-bromobenzyl)-4a,6a-dimethyl-3,4,4a,6,6a,8,9,9a,9b,10-decahydro-1H-indeno[5,4-f]quinoline-2,5,7(4bH)-trione] | 6.25 µM | no statistical difference |  | 
2 | C[C@]12CCC(=O)N(Cc3ccc(Cl)cc3)C1=CC[C@@H]1[C@@H]2C(=O)C[C@]2(C)C(=O)CC[C@@H]12 [Compound 1, (4aR,4bS,6aS,9aS,9bS)-1-(4-chlorobenzyl)-4a,6a-dimethyl-3,4,4a,6,6a,8,9,9a,9b,10-decahydro-1H-indeno[5,4-f]quinoline-2,5,7(4bH)-trione] | 6.25 µM |  | 34 ± 4 µM | 48%
3 | C[C@]12CC[C@H](O)CC1=CC[C@@H]1[C@@H]2CC[C@]2(C)C(n3cnc4ccccc43)=CC[C@@H]12 [Compound 2, Galeterone, reference compound] |  |  | 41 ± 7 µM | 
